What follows are compounds tested on C666-1 cells (assay: C666-1 Cell Viability Assay (Resazurin cytotoxicity test)). Settings: Homo sapiens, C6661, EB virus-positive C666-1 cells, 72 hours treatment, 100-0.78 micromole/L, read-out: Inhibitory Rate.
Format: cell-based
Description: In order to evaluate the inhibitory effect of the small molecular compound of the present disclosure on EBNA1 at the cellular level, a cytotoxicity test was performed.
As mentioned in the Background of the present disclosure, nasopharyngeal carcinoma is a kind of disease highly associated with latent infection of EB virus. EB virus in latent state only expresses limited proteins to maintain its genome replication, among which EBNA1 protein is an essential functional protein. Studies have confirmed that inhibition of EBNA1 can reduce the proliferation of the corresponding nasopharyngeal carcinoma cells or kill them. Therefore, EB virus-positive nasopharyngeal carcinoma tumor cells (C666-1 cells) are selected for test to verify the effect of the small molecular compound of the present disclosure.
During testing, 100 microliters of different cell lines were inoculated onto a transparent 96-well plate, and 5×10^3 cells were inoculated in each well for C666-1 cells. After the cells were cultured in an incubator under […] at 37° C. for 24 hours, 10 microliters of compound with a concentration ranging from 1 mmol/L to 7.8 micromol/L were added to each well (8 points, double dilution, the final concentration was 100-0.78 micromole/L), and treated in the incubator under carbon dioxide at 37° C. for 72 hours. Cell viability was assessed using the redox indicator Resazurin. After addition of 10 microliters of 600 micromole/liter Resazurin to each well and incubation at 37° C. for 3 hours. Using a Tecan microplate reader, the fluorescence signals were detected at an […]. A software was used to fit the inhibition curve and calculate half-maximal effect concentration (EC50). The selectivity of compound activity was assessed by comparing the EC50 values of EB virus-positive and EB virus-negative cell lines.

Which EC50 does the source give for `O=C(Cc1ccc(OC2CN(c3cccc(C(=O)O)c3-c3ccccc3)C2)cc1)Nc1cccnc1` [Example 40a, 6-(3-(4-(2-oxo-2-(pyridin-3-ylamino)ethyl)phenoxy)azetidin-1-yl)-[1,1′-biphenyl]-2-carboxylic acid] here?
The EC50 was 1 to 10 µM.

How did the EC50 turn out when `O=C(O)c1cccc(N2CC(Oc3ccc(COc4ccccn4)cc3)C2)c1-n1cccc1` [Example 12a, 3-(3-(4-((pyridin-2-yloxy)methyl)phenoxy)azetidin-1-yl)-2-(1H-pyrrol-1-yl) benzoic acid] was run?
The EC50 was greater than 50 µM.

`COC(=O)c1cccc(C#Cc2ccc(NC(=O)Nc3cccnc3)cc2)c1-c1ccccc1` [Example 58, methyl 6-((4-(3-(pyridin-3-yl)ureido)phenyl)ethynyl)-[1,1′-biphenyl]-2-carboxylate] was tested. Which EC50 did it give?
Its EC50 is less than 1 µM.

`O=C(Cc1cccnc1)Nc1ccc(OC2CN(c3cccc(C(=O)O)c3-n3cccc3)C2)cc1` [Example 51a, 3-(3-(4-(2-(pyridin-3-yl)acetamido)phenoxy)azetidin-1-yl)-2-(1H-pyrrol-1-yl) benzoic acid] was tested. Which EC50 did it give?
Its EC50 is less than 1 µM.

Which EC50 does the source give for `Cc1ccncc1OCc1ccc(OC2CN(c3cccc(C(=O)O)c3-n3cccc3)C2)cc1` [Example 2a, 3-(3-(4-((4-methylpyridin-3-yloxy)methyl)phenoxy)azetidin-1-yl)-2-(1H-pyrrol-1-yl) benzoic acid] here?
The EC50 was greater than 50 µM.

Which EC50 does the source give for `O=C(O)c1cccc(N2CC(Oc3ccc(OCc4cccnc4)cc3)C2)c1-n1cccc1` [Example 24a, 3-(3-(4-(pyridin-3-ylmethoxy)phenoxy)azetidin-1-yl)-2-(1H-pyrrol-1-yl) benzoic acid] here?
Its EC50 is 10 to 50 µM.

For `COC(=O)c1cccc(N2CC(Oc3ccc(COc4cncc(C)c4)cc3)C2)c1-n1cccc1` [Example 3, methyl 3-(3-(4-((5-methylpyridin-3-yloxy)methyl)phenoxy)azetidin-1-yl)-2-(1H-pyrrol-1-yl) benzoate], which EC50 is on record?
The EC50 was greater than 50 µM.

`O=C(Cc1ccc(OC2CN(c3cccc(C(=O)O)c3-c3ccc4cc[nH]c4c3)C2)cc1)Nc1cccnc1` [Example 44a, 2-(1H-indol-6-yl)-3-(3-(4-(2-oxo-2-(pyridin-3-ylamino)ethyl)phenoxy)azetidin-1-yl) benzoic acid] was tested. Which EC50 did it give?
The EC50 was 1 to 10 µM.

For `O=C(Cc1ccc(OC2CN(c3cccc(C(=O)O)c3)C2)cc1)Nc1cccnc1` [Example 43a, 3-(3-(4-(2-oxo-2-(pyridin-3-ylamino)ethyl)phenoxy)azetidin-1-yl) benzoic acid], which EC50 is on record?
Its EC50 is 1 to 10 µM.

How did the EC50 turn out when `COC(=O)c1cccc(N2CC(Oc3ccc(COc4ccncc4)cc3)C2)c1-n1cccc1` [Example 8, methyl 3-(3-(4-((pyridin-4-yloxy)methyl)phenoxy)azetidin-1-yl)-2-(1H-pyrrol-1-yl) benzoate] was run?
The EC50 was 10 to 50 µM.

With `COC(=O)c1cccc(C#Cc2ccc(NC(=O)Nc3cccnc3)cc2)c1-c1ccc2cc[nH]c2c1` [Example 59, methyl 2-(1H-indol-6-yl)-3-((4-(3-(pyridin-3-yl)ureido)phenyl)ethynyl) benzoate] as the compound, how does the EC50 read?
Its EC50 is less than 1 µM.

How did the EC50 turn out when `COC(=O)c1cccc(N2CC(Oc3ccc(CC(=O)Nc4cccnc4)cc3)C2)c1` [Example 43, methyl 3-(3-(4-(2-oxo-2-(pyridin-3-ylamino)ethyl)phenoxy)azetidin-1-yl) benzoate] was run?
Its EC50 is 1 to 10 µM.

`O=C(O)c1cccc(N2CC(Oc3ccc(COc4cncnc4)cc3)C2)c1-n1cccc1` [Example 14a, 3-(3-(4-((pyrimidin-5-yloxy)methyl)phenoxy)azetidin-1-yl)-2-(1H-pyrrol-1-yl) benzoic acid] was tested. Which EC50 did it give?
Its EC50 is 1 to 10 µM.

How did the EC50 turn out when `O=C(Nc1ccc(OC2CN(c3cccc(C(=O)O)c3-n3cccc3)C2)cc1)Nc1cncc(F)c1` [Example 46a, 3-(3-(4-(3-(5-fluoropyridin-3-yl)ureido)phenoxy)azetidin-1-yl)-2-(1H-pyrrol-1-yl) benzoic acid] was run?
Its EC50 is 1 to 10 µM.

For `COC(=O)c1cccc(N2CC(Oc3ccc(CC(=O)Nc4cccnc4)cc3)C2)c1-c1ccc2cc[nH]c2c1` [Example 44, methyl 2-(1H-indol-6-yl)-3-(3-(4-(2-oxo-2-(pyridin-3-ylamino)ethyl)phenoxy)azetidin-1-yl) benzoate], which EC50 is on record?
Its EC50 is less than 1 µM.

How did the EC50 turn out when `CNC(=O)c1cccc(N2CC(Oc3ccc(NC(=O)Nc4cccnc4)cc3)C2)c1-c1ccccc1` [Example 42c, N-methyl-6-(3-(4-(3-(pyridin-3-yl)ureido)phenoxy)azetidin-1-yl)-[1,1′-biphenyl]-2-carboxamide] was run?
Its EC50 is less than 1 µM.

For `COC(=O)c1cccc(C#Cc2ccc(CC(=O)Nc3cccnc3)cc2)c1-c1ccc2cc[nH]c2c1` [Example 61, methyl 2-(1H-indol-6-yl)-3-((4-(2-oxo-2-(pyridin-3-ylamino)ethyl)phenyl)ethynyl) benzoate], which EC50 is on record?
The EC50 was less than 1 µM.

For `O=C(O)c1cccc(N2CC(Oc3ccc(/C=C/c4cccnc4)cc3)C2)c1-c1ccccc1` [Example 36a, (E)-6-(3-(4-(2-(pyridin-3-yl)vinyl)phenoxy)azetidin-1-yl)-[1,1′-biphenyl]-2-carboxylic acid], which EC50 is on record?
Its EC50 is 10 to 50 µM.

With `O=C(O)c1cccc(N2CC(Oc3ccc(CNc4cccnc4)cc3)C2)c1-n1cccc1` [Example 23a, 3-(3-(4-((pyridin-3-ylamino)methyl)phenoxy)azetidin-1-yl)-2-(1H-pyrrol-1-yl) benzoic acid] as the compound, how does the EC50 read?
The EC50 was 10 to 50 µM.

How did the EC50 turn out when `O=C(Cc1cccnc1)Nc1ccc(C#Cc2cccc(C(=O)O)c2-c2ccccc2)cc1` [Example 62a, 6-((4-(2-(pyridin-3-yl)acetamido)phenyl)ethynyl)-[1,1′-biphenyl]-2-carboxylic acid] was run?
Its EC50 is less than 1 µM.

With `COC(=O)c1cccc(N2CC(Oc3ccc(NC(=O)Cc4cccnc4)c(F)c3)C2)c1-n1cccc1` [Example 52, methyl 3-(3-(3-fluoro-4-(2-(pyridin-3-yl)acetamido)phenoxy)azetidin-1-yl)-2-(1H-pyrrol-1-yl) benzoate] as the compound, how does the EC50 read?
Its EC50 is less than 1 µM.

How did the EC50 turn out when `COC(=O)c1cccc(N2CC(Oc3ccc(NC(=O)Cc4cccnc4)c(F)c3)C2)c1-c1ccccc1` [Example 54, methyl 6-(3-(3-fluoro-4-(2-(pyridin-3-yl)acetamido)phenoxy)azetidin-1-yl)-[1,1′-biphenyl]-2-carboxylate] was run?
The EC50 was 1 to 10 µM.

Which EC50 does the source give for `O=C(Nc1ccc(OC2CN(c3cccc(C(=O)NO)c3-n3cccc3)C2)cc1)Nc1cccc(C(F)(F)F)c1` [Example 10b, N-hydroxy-2-(1H-pyrrol-1-yl)-3-(3-(4-(3-(3-(trifluoromethyl)phenyl)ureido)phenoxy)azetidin-1-yl) benzamide] here?
The EC50 was 1 to 10 µM.

With `Cc1cc(OC2CN(c3cccc(C(=O)O)c3-n3cccc3)C2)ccc1COc1cccnc1` [Example 15a, 3-(3-(3-methyl-4-((pyridin-3-yloxy)methyl)phenoxy)azetidin-1-yl)-2-(1H-pyrrol-1-yl) benzoic acid] as the compound, how does the EC50 read?
The EC50 was 10 to 50 µM.

For `COC(=O)c1cccc(N2CC(Oc3ccc(NC(=O)c4cccnc4)cc3)C2)c1-n1cccc1` [Example 31, methyl 3-(3-(4-(nicotinamido)phenoxy)azetidin-1-yl)-2-(1H-pyrrol-1-yl) benzoate], which EC50 is on record?
Its EC50 is 10 to 50 µM.

Which EC50 does the source give for `O=C(Cc1ccc(OC2CN(c3cccc(C(=O)NO)c3-c3ccccc3)C2)cc1)Nc1cccnc1` [Example 40b, N-hydroxy-6-(3-(4-(2-oxo-2-(pyridin-3-ylamino)ethyl)phenoxy)azetidin-1-yl)-[1,1′-biphenyl]-2-carboxamide] here?
Its EC50 is less than 1 µM.

Which EC50 does the source give for `COC(=O)c1cccc(N2CC(Oc3ccc(CC(=O)Nc4cccnc4)cc3)C2)c1-c1ccccc1` [Example 40, methyl 6-(3-(4-(2-oxo-2-(pyridin-3-ylamino)ethyl)phenoxy)azetidin-1-yl)-[1,1′-biphenyl]-2-carboxylate] here?
The EC50 was less than 1 µM.

Source: patent US20240308987A1, “SMALL MOLECULE INHIBITOR AGAINST NASOPHARYNGEAL CARCINOMA, PREPARATION METHOD AND APPLICATION THEREOF” (SHENZHEN BAY LABORATORY, priority 2021, published 2024)
